In the NIST ThermoML archive (doi:10.1016/j.jct.2015.04.005):

Assay: xn = mol fraction of the nth substance listed
Conditions: 102.24 kPa, Liquid; for speed of sound: Frequency=5 MHz, Single path-length method; for mass density: Vibrating tube method

CCC(=O)[O-].C[NH2+]CCO [2-hydroxy-N-methylethanaminium propionate] + O
Conditions	mass density [kg/m3]	speed of sound [m/s]
298.15 K, x1 = 0.02	1016.8	1628.3
298.15 K, x1 = 0.0501	1039.1	1746.5
298.15 K, x1 = 0.1001	1056.2	1820.9
298.15 K, x1 = 0.101	1055.8	1818.1
298.15 K, x1 = 0.2006	1072.5	1827.2
298.15 K, x1 = 0.301	1072.6	1790.1
298.15 K, x1 = 0.3978	1074	1757
298.15 K, x1 = 0.4976	1072.3	1726.2
298.15 K, x1 = 0.5972	1071.9	1721
298.15 K, x1 = 0.8006	1068.7	1684.5
298.15 K, x1 = 1	1065.8	1638.4
303.15 K, x1 = 0.02	1013.4	1630.6
303.15 K, x1 = 0.0501	1036.3	1741.6
303.15 K, x1 = 0.1001	1053.4	1810.8
303.15 K, x1 = 0.101	1052.8	1807
303.15 K, x1 = 0.2006	1069.5	1812.4
303.15 K, x1 = 0.301	1069.5	1775.9
303.15 K, x1 = 0.3978	1070.9	1742.3
303.15 K, x1 = 0.4976	1069.2	1711
303.15 K, x1 = 0.5972	1068.7	1705.5
303.15 K, x1 = 0.8006	1065.4	1668.3
303.15 K, x1 = 1	1062.6	1624.6
308.15 K, x1 = 0.02	1010	1632.8
308.15 K, x1 = 0.0501	1033.5	1736.7
308.15 K, x1 = 0.1001	1050.7	1800.7
308.15 K, x1 = 0.101	1049.9	1795.9
308.15 K, x1 = 0.2006	1066.5	1797.6
308.15 K, x1 = 0.301	1066.4	1761.6
308.15 K, x1 = 0.3978	1067.9	1727.6
308.15 K, x1 = 0.4976	1066.1	1695.7
308.15 K, x1 = 0.5972	1065.6	1689.9
308.15 K, x1 = 0.8006	1062.2	1652
308.15 K, x1 = 1	1059.4	1607
313.15 K, x1 = 0.02	1006.6	1635.1
313.15 K, x1 = 0.0501	1030.6	1731.8
313.15 K, x1 = 0.1001	1047.9	1790.6
313.15 K, x1 = 0.101	1046.9	1784.7
313.15 K, x1 = 0.2006	1063.5	1782.8
313.15 K, x1 = 0.301	1063.3	1747.4
313.15 K, x1 = 0.3978	1064.8	1712.8
313.15 K, x1 = 0.4976	1063	1680.5
313.15 K, x1 = 0.5972	1062.5	1674.4
313.15 K, x1 = 0.8006	1059	1635.7
313.15 K, x1 = 1	1056.2	1588.5
318.15 K, x1 = 0.02	1003.2	1637.4
318.15 K, x1 = 0.0501	1027.8	1726.9
318.15 K, x1 = 0.1001	1045.2	1780.5
318.15 K, x1 = 0.101	1043.9	1773.6
318.15 K, x1 = 0.2006	1060.5	1768
318.15 K, x1 = 0.301	1060.2	1733.1
318.15 K, x1 = 0.3978	1061.8	1698.1
318.15 K, x1 = 0.4976	1059.8	1665.2
318.15 K, x1 = 0.5972	1059.4	1658.8
318.15 K, x1 = 0.8006	1055.8	1619.5
318.15 K, x1 = 1	1053	1573.2
323.15 K, x1 = 0.02	999.8	1639.6
323.15 K, x1 = 0.0501	1025	1722
323.15 K, x1 = 0.1001	1042.4	1770.4
323.15 K, x1 = 0.101	1040.9	1762.5
323.15 K, x1 = 0.2006	1057.5	1753.2
323.15 K, x1 = 0.301	1057.1	1718.9
323.15 K, x1 = 0.3978	1058.7	1683.3
323.15 K, x1 = 0.4976	1056.7	1650
323.15 K, x1 = 0.5972	1056.2	1643.3
323.15 K, x1 = 0.8006	1052.6	1603.2
323.15 K, x1 = 1	1049.8	1558.3
328.15 K, x1 = 0.02	996.4	1641.9
328.15 K, x1 = 0.0501	1022.2	1717.1
328.15 K, x1 = 0.1001	1039.7	1760.3
328.15 K, x1 = 0.101	1037.9	1751.4
328.15 K, x1 = 0.2006	1054.5	1738.3
328.15 K, x1 = 0.301	1054	1704.6
328.15 K, x1 = 0.3978	1055.6	1668.6
328.15 K, x1 = 0.4976	1053.6	1634.8
328.15 K, x1 = 0.5972	1053.1	1627.8
328.15 K, x1 = 0.8006	1049.3	1587
328.15 K, x1 = 1	1046.5	1543.7
333.15 K, x1 = 0.02	993	1644.1
333.15 K, x1 = 0.0501	1019.4	1712.2
333.15 K, x1 = 0.1001	1036.9	1750.3
333.15 K, x1 = 0.101	1035	1740.3
333.15 K, x1 = 0.2006	1051.5	1723.5
333.15 K, x1 = 0.301	1051	1690.4
333.15 K, x1 = 0.3978	1052.6	1653.9
333.15 K, x1 = 0.4976	1050.5	1619.5
333.15 K, x1 = 0.5972	1050	1612.2
333.15 K, x1 = 0.8006	1046.1	1570.7
333.15 K, x1 = 1	1043.2	1527
